Measurements from ChEMBL document CHEMBL4818999, “Pyrido[2, 3-d]pyrimidin-7(8H)-ones as new selective orally bioavailable Threonine Tyrosine Kinase (TTK) inhibitors” (Eur J Med Chem, 2021).

Columns and labels:
[1] = target: Phosphatidylinositol 4,5-bisphosphate 3-kinase catalytic subunit delta isoform (Homo sapiens) (UniProt O00329); conditions: dose 100.0 nM
Description: Inhibition of human PIK3CD at 100 nM by scintillation counting based direct-filter Binding radiometric assay relative to control

[2] = target: STE20/SPS1-related proline-alanine-rich protein kinase (Homo sapiens) (UniProt Q9UEW8); conditions: dose 100.0 nM
Description: Inhibition of human STK39 at 100 nM by direct-filter Binding radiometric assay relative t

[3] = target: Maternal embryonic leucine zipper kinase (Homo sapiens) (UniProt Q14680); conditions: dose 100.0 nM
Maternal embryonic leucine zipper kinase (Homo sapiens), sequence (Q14680 whole entry, looked up): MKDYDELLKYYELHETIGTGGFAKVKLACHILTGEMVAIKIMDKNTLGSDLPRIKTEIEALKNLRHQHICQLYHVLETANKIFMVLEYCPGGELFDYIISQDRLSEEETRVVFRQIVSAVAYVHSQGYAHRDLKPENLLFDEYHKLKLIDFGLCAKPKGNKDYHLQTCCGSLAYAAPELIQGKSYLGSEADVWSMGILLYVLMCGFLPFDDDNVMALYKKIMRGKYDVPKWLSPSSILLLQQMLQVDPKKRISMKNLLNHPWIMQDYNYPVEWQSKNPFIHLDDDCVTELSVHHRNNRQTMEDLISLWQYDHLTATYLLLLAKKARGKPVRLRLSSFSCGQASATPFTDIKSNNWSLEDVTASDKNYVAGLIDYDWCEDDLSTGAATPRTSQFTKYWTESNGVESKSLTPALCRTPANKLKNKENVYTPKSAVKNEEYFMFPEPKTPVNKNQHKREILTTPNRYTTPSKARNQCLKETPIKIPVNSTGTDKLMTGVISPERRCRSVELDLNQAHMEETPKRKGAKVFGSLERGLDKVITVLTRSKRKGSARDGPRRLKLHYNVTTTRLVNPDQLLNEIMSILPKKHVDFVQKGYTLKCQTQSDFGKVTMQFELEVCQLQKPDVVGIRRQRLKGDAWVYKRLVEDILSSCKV

HCT-116 [4] = assay: Induction of apoptosis in human HCT-116 cells assessed as viable cells at 1000 nM incubated for 48 hrs by annexin V and 7-AAD staining based flow cytometry analysis (reference value: 82.09 %); format: functional; conditions: read-out: Activity
HCT-116 [5] = assay: Induction of apoptosis in human HCT-116 cells assessed as late apoptotic cells at 111.1 nM incubated for 48 hrs by annexin V and 7-AAD staining based flow cytometry analysis (reference value: 8.59 %); format: functional
[6] = Cmax in Sprague-Dawley rat at 5 mg/kg, iv; format: ADME, organism-based; design: route intravenous, dose 5 mg/kg; conditions: in vivo
[7] = target: Casein kinase II subunit alpha (Homo sapiens) (UniProt P68400); conditions: dose 100.0 nM
Casein kinase II subunit alpha (Homo sapiens), sequence (P68400 whole entry, looked up): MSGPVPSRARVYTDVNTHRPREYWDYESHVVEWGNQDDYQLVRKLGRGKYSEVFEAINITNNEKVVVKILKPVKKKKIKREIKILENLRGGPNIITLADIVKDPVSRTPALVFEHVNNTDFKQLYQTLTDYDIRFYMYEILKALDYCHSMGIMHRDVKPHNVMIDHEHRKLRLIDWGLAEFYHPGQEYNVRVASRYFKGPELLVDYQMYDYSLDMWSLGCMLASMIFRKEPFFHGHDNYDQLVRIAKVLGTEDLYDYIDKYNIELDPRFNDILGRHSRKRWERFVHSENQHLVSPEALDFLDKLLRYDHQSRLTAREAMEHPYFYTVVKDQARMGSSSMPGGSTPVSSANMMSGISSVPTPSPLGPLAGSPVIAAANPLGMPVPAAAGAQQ

HCT-116 [8] = assay: Induction of apoptosis in human HCT-116 cells assessed as late apoptotic cells at 1000 nM incubated for 48 hrs by annexin V and 7-AAD staining based flow cytometry analysis (reference value: 8.59 %); format: functional
HCT-116 [9] = assay: Induction of apoptosis in human HCT-116 cells assessed as early apoptotic cells at 111.1 nM incubated for 48 hrs by annexin V and 7-AAD staining based flow cytometry analysis (reference value: 8.12 %); format: functional
COLO 205 = assay: Antiproliferative activity against human COLO-205 cells assessed as growth inhibition after 96 hrs by CCK8 assay; format: functional, cell-based; conditions: COLO 205, 96 h
[10] = target: Death-associated protein kinase 3 (Homo sapiens, UniProt O43293); conditions: dose 100.0 nM
Description: Inhibition of human DAPK3 at 100 nM by direct-filter Binding radiometric assay relative to control

HCT-116 [11] = assay: Induction of apoptosis in human HCT-116 cells assessed as […] cells at 1000 nM incubated for 48 hrs by annexin V and 7-AAD staining based flow cytometry analysis (reference value: 1.20 %); format: functional
[12] = target: Serine/threonine-protein kinase ULK2 (Homo sapiens) (UniProt Q8IYT8); conditions: dose 100.0 nM
Serine/threonine-protein kinase ULK2 (Homo sapiens), sequence (Q8IYT8 whole entry): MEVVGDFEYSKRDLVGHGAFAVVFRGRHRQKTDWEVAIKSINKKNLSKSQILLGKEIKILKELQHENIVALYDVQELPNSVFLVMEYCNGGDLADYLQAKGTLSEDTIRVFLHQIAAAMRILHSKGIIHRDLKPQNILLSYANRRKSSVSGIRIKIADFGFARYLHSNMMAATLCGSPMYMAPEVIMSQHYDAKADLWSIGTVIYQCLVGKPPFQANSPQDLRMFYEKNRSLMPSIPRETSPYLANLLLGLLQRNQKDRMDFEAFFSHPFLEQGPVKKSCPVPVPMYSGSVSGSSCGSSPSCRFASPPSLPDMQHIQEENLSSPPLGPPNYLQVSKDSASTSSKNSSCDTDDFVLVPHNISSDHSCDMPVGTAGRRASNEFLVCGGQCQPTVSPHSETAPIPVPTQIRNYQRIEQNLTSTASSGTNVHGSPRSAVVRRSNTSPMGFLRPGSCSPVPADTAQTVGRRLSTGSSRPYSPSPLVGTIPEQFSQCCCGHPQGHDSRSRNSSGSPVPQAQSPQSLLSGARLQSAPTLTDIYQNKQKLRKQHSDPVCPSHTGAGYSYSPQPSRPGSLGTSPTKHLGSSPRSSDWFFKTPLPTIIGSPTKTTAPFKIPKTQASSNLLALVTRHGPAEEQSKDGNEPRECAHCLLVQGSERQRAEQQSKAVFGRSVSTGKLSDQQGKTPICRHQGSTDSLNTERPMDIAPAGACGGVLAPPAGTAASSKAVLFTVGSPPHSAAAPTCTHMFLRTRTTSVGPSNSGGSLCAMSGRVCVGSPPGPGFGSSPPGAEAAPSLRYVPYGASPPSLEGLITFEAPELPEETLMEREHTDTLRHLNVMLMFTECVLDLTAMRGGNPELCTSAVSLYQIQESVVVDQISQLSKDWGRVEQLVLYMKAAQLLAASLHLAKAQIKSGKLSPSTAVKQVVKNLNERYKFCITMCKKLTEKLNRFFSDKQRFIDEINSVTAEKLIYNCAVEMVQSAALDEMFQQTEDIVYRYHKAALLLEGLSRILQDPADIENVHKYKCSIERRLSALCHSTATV
Description: Inhibition of human recombinant ULK2 (1 to 306) using casein at 100 nM direct filter-binding radiometric kinase activity assay relative to control

[13] = AUC (0 to infinity) in Sprague-Dawley rat at 25 mg/kg, po; format: ADME, organism-based; design: time infinity, route oral, dose 25 mg/kg; conditions: in vivo
HCT-116 [14] = assay: Induction of apoptosis in human HCT-116 cells assessed as late apoptotic cells at 333.3 nM incubated for 48 hrs by annexin V and 7-AAD staining based flow cytometry analysis (reference value: 1.20 %); format: functional
[15] = target: Death-associated protein kinase 2 (Homo sapiens) (UniProt Q9UIK4); conditions: dose 100.0 nM
Death-associated protein kinase 2 (Homo sapiens), sequence (Q9UIK4 whole entry, looked up): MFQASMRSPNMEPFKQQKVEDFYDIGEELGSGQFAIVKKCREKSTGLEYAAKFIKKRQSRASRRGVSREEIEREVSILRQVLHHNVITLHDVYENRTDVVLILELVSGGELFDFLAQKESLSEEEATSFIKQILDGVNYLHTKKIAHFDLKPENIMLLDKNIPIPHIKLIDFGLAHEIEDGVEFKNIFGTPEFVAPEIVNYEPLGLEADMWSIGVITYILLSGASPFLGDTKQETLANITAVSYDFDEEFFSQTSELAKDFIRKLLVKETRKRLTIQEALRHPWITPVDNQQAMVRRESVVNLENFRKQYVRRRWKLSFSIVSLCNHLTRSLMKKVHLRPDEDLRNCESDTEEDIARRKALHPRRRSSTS
Description: Inhibition of human recombinant full length DAPK2 using Calmodulin as substrate at 100 nM direct filter-binding radiometric kinase activity assay relative to control

[16] = target: Dual specificity protein kinase TTK (Homo sapiens) (UniProt P33981); conditions: dose 100.0 nM, time 40.0 min
HCT-116 [17] = assay: Antiproliferative activity against human HCT-116 cells assessed as growth inhibition after 96 hrs by CCK8 assay; format: functional, cell-based; conditions: HCT-116, 96 h
[18] = target: T1, MAP/microtubule affinity-regulating kinase 3 (Homo sapiens, UniProt P27448); assay: Binding affinity to wild-type human full length MARK3 (M1 to L729 residues) expressed in bacterial expression system by measuring active site-directed competition binding based Kinomescan method
Target sequence in this assay (P27448 whole entry, the tested form may be a part): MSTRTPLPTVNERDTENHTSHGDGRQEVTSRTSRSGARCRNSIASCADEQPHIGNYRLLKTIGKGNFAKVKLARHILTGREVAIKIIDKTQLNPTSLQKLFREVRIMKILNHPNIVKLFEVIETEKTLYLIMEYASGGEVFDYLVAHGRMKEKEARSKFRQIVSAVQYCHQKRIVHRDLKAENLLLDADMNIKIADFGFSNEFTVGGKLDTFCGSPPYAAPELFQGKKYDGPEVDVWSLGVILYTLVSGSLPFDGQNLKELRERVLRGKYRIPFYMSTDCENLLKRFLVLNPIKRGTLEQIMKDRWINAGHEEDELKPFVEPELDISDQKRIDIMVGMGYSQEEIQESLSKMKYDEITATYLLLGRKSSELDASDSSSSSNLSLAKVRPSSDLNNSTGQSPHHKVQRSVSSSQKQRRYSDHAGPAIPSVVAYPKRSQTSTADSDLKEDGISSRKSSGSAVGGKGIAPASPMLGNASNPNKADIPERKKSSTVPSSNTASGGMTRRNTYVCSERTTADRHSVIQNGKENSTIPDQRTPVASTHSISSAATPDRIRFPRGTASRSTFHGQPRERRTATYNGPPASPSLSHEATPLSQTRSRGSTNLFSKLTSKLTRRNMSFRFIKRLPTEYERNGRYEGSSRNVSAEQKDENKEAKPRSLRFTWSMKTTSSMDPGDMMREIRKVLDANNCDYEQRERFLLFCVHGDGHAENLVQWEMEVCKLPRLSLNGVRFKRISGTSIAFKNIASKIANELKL

[19] = Clearance in Sprague-Dawley rat at 5 mg/kg, iv; format: ADME, organism-based; conditions: in vivo
[20] = target: Mitogen-activated protein kinase 8 (Homo sapiens) (UniProt P45983); conditions: dose 100.0 nM
Mitogen-activated protein kinase 8 (Homo sapiens), sequence (P45983 whole entry): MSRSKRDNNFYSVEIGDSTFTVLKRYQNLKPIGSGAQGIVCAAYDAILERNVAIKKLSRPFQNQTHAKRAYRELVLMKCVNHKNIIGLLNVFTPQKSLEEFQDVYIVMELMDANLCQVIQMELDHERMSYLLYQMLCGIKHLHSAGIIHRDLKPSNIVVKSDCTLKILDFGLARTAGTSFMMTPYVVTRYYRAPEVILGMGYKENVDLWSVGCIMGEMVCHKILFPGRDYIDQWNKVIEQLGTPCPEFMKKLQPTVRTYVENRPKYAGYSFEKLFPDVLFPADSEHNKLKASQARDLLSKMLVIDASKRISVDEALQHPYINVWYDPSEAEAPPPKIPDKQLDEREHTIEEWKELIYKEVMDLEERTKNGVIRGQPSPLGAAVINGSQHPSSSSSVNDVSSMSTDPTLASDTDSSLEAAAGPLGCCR
Description: Inhibition of human full length JNK-1 using ATF2 as substrate at 100 nM direct filter-binding radiometric kinase activity assay relative to control

HCT-116 [21] = assay: Induction of apoptosis in human HCT-116 cells assessed as late apoptotic cells at 333.3 nM incubated for 48 hrs by annexin V and 7-AAD staining based flow cytometry analysis (reference value: 8.59 %); format: functional
[22] = target: Serine/threonine-protein kinase 16 (Homo sapiens) (UniProt O75716); conditions: dose 100.0 nM
Serine/threonine-protein kinase 16 (Homo sapiens), sequence (O75716 whole entry): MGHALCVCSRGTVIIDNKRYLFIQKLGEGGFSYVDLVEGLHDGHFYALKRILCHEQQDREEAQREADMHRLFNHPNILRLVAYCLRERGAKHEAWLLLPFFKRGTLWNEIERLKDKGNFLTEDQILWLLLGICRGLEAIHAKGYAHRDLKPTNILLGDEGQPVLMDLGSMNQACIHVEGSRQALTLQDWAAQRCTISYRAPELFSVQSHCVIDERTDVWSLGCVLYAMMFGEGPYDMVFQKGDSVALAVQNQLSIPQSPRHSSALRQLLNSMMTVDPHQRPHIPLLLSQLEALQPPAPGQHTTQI
Description: Inhibition of human STK16 at 100 nM by direct-filter Binding radiometric assay relative to control

[23] = target: T2, Dual specificity protein kinase TTK (Homo sapiens, UniProt P33981); assay: Inhibition of recombinant full-length human TTK using MBP as substrate incubated for 40 mins in presence of [gamma33P]ATP by scintillation counting based radiometry assay relative to control
T2 sequence (P33981 whole entry): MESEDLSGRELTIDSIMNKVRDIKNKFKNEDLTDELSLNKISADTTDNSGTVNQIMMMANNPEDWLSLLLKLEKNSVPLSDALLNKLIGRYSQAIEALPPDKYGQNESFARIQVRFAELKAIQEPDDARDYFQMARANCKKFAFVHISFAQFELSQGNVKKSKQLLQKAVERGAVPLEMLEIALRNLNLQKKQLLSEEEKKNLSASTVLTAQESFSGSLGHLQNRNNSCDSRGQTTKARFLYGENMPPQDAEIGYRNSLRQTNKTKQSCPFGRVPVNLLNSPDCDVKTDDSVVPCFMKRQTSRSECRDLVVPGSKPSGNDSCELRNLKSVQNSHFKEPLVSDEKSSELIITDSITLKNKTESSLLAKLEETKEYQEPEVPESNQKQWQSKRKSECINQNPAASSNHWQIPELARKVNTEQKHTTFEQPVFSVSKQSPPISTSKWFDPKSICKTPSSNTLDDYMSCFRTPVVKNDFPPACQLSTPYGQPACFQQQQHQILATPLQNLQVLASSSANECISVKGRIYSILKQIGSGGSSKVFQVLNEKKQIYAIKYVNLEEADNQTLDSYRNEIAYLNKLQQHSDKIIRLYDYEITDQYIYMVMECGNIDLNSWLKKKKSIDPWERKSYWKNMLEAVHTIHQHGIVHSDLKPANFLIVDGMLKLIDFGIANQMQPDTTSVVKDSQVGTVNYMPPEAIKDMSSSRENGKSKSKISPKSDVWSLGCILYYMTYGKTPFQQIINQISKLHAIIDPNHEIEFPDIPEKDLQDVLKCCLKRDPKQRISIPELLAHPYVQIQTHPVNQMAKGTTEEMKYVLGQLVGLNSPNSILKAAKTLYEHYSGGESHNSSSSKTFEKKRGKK

A549 = assay: Antiproliferative activity against human A549 cells assessed as growth inhibition after 96 hrs by CCK8 assay; format: functional, cell-based; conditions: A549, 96 h
[24] = Oral bioavailability in Sprague-Dawley rat at 25 mg/kg; format: ADME, organism-based; conditions: in vivo
HCT-116 [25] = assay: Induction of apoptosis in human HCT-116 cells assessed as early apoptotic cells at 333.3 nM incubated for 48 hrs by annexin V and 7-AAD staining based flow cytometry analysis (reference value: 8.12 %); format: functional
[26] = target: T1, MAP/microtubule affinity-regulating kinase 3; conditions: dose 100.0 nM
Target sequence in this assay (P27448 whole entry, looked up, the tested form may be a part): as the sequence (P27448 whole entry, the tested form may be a part) above

HCT-116 [27] = assay: Induction of apoptosis in human HCT-116 cells assessed as early apoptotic cells at 1000 nM incubated for 48 hrs by annexin V and 7-AAD staining based flow cytometry analysis (reference value: 8.12 %); format: functional

## COc1cc(N2CCN(C)CC2)ccc1Nc1ncc2c(C)cc(=O)n([C@H]3CC[C@@H](NC(=O)C4CCCCC4)CC3)c2n1
[1]
  inhibition: 100%
[2]
  inhibition: 75%
[3]
  inhibition: 77%
HCT-116 [4]
  viability at 1 µM: 56.6%
HCT-116 [5]
  Activity: 5.3%
[6]
  Cmax: 2530 ng/mL
[7]
  inhibition: 69%
HCT-116 [8]
  Activity: 21.18%
HCT-116 [9]
  Activity: 4.46%
COLO 205
  IC50: 280 nM
[10]
  inhibition: 94.5%
HCT-116 [11]
  Activity: 3.44%
[12]
  inhibition: 85%
[13]
  AUC(0-inf): 13000 ng·h/mL
HCT-116 [14]
  Activity: 2.04%
[15]
  inhibition: 65%
[16]
  inhibition: 98.1%
HCT-116 [17]
  IC50: 410 nM
[18]
  Kd: 11 nM
[19]
  clearance: 15.8 mL/min/kg
[20]
  inhibition: 75%
HCT-116 [21]
  Activity: 13.81%
[22]
  inhibition: 87%
[23]
  IC50: 23 nM
A549
  IC50: 4400 nM
[24]
  bioavailability: 45.2%
HCT-116 [25]
  Activity: 13.5%
[26]
  inhibition: 92%
HCT-116 [27]
  Activity: 18.81%
